Data on 16 compounds can be found in patent US20250075056A1, “IMIDAZOLYSIS OF POLYESTERS AND POLYURETHANES” (The Board of Trustees of The University of Alabama, priority 2023, published 2025).

Read-outs that look alike come from different tables or passages of the source. Some results are limits rather than exact numbers.

The nature of data set [1]: Solubility of TBIs in common solvents. In kind it is physicochemical.
The conditions of data set [2]: imidazole reagent, literature refs 58-60, cited from earlier work.
The mark [3] stands for this setting: organic solvent or mixture, solvent Ethanol, read-out: Solubility in Ethanol.
The mark [4] stands for this setting: solvent DI Water, read-out: Solubility in DI Water.

For `CCc1nc(C)cn1C(=O)c1ccc(C(=O)n2cc(C)nc2CC)cc1` [7b], the solubility in data set [1] (setting [3]) is less than 1 mg/mL; in data set [1] (setting [4]), more than 1 mg/mL.
Taken in the same sequence, the figures for `Cc1cn(C(=O)c2ccc(C(=O)n3cnc(C)c3)cc2)cn1` [4b] were more than 1 mg/mL and more than 1 mg/mL.
For `O=C(c1ccc(C(=O)n2ccnc2)cc1)n1ccnc1` [1b, 1,1′-(1,4-Phenylene)bis[1-(1H-imidazol-1-yl)methanone]], the “Solubility on contact with H2O” value in data set [1] (DI H2O) was “solubilize”. Also, the solubility in data set [1] (setting [3]) and in data set [1] (setting [4]) was more than 1 mg/mL each time.
For the compound `Cc1ncc[nH]1` [2a, 2-Methyl imidazole], the figures for the pKa in data set [2] and in data set [2] (listed as 2-methylimidazole) were 7.85-8.10 and 8.1, respectively.
As to `CCc1ncc[nH]1` [3a, 2-Ethyl imidazole], the pKa in data set [2] was 7.99-8.
As for `O=C(c1ccc(C(=O)n2ccnc2-c2ccccc2)cc1)n1ccnc1-c1ccccc1` [8b], the “Solubility in typical aromatic organic solvents” value in data set [1] (e.g., toluene, xylene) was “moderately soluble”. Besides, the solubility in data set [1] (setting [3]) and in data set [1] (setting [4]) was less than 1 mg/mL in each case.
`Cc1nc(C)c(C)[nH]1` [6a, 2,4,5-Trimethyl imidazole]: in data set [2], the pKa is 8.92.
Consider `Cc1nccn1C(=O)c1ccc(C(=O)n2ccnc2C)cc1` [2b], for which the solubility in data set [1] (setting [3]) and in data set [1] (setting [4]) was more than 1 mg/mL each time.
Turning to `Cc1c[nH]cn1` [4a, 4-Methyl imidazole], the pKa in data set [2] is listed as 7.69-7.80.
Take Imidazole [1a]: the pKa in data set [2] is recorded as approximately 7.
For the compound `Cc1nc(C)n(C(=O)c2ccc(C(=O)n3c(C)nc(C)c3C)cc2)c1C` [6b], the solubility in data set [1] (setting [3]) and in data set [1] (setting [4]) was more than 1 mg/mL in each case.
Regarding `CC(C)c1nccn1C(=O)c1ccc(C(=O)n2ccnc2C(C)C)cc1` [5b], the solubility in data set [1] (setting [3]) and in data set [1] (setting [4]) was less than 1 mg/mL in each case.
Turning to `c1ccc(-c2ncc[nH]2)cc1` [8a, 2-Phenyl imidazole], the pKa in data set [2] is listed as 6.44.
As to `CC(C)c1ncc[nH]1` [5a, 2-Isopropyl imidazole], the pKa in data set [2] is reported as 7.97.
For the compound `CCc1nccn1C(=O)c1ccc(C(=O)n2ccnc2CC)cc1` [3b], the solubility in data set [1] (setting [3]) and in data set [1] (setting [4]) was more than 1 mg/mL throughout.
Take `CCc1nc(C)c[nH]1` [7a, 2-Ethyl-4-methyl imidazole]: the pKa in data set [2] is listed as 8.68.

By solubility is commonly meant how much of the substance goes into solution per volume. One may read the pKa as the negative logarithm of the acid dissociation constant.
